# Marks after values point to notes of the source that are not given here.
# Tests used:
# [1] = test system: M. incognita second-stage juveniles; assay: Microwell assay: previously hatched J2 immersed in compounds, activity and viability; settings: for mortality at 0.1 %: read-out: nonviable (killed) J2
# Experimental: Nematode cultures: As described in Meyer et al. (Meyer, S. L. F., et al., Nematropica, 46: 85-96 (2016)), M. incognita race 1 (originally isolated in Maryland) was maintained in a greenhouse (24° to 29° C.; natural and supplemental lighting combined for a 16-h daylength) on susceptible cayenne pepper (Capsicum annuum) TA-136′ plants. All greenhouse experiments described herein were conducted under the same conditions. Two to three months after pepper plant inoculation, egg masses were picked from roots. Eggs were separated by 5 min immersion in 0.6% sodium hypochlorite, followed by a rinse in sterile distilled water (SDW). To collect second-stage juveniles (J2) for microwell assays, the surface-sterilized eggs were placed in a hatching chamber (Spectra/Mesh Nylon Filter, openings 25-μm-diam.; Spectrum Laboratories Inc., Rancho Dominguez, Calif.) set in an autoclaved dish that was placed on a rotary shaker for 3 days at 35 rpm. For some M. incognita and H. glycines assays, 25 or […] kanamycin monosulfate (Phytotechnology Laboratories, Shawnee Mission, Kans.) was added to the hatching chamber to prevent growth of bacteria. The collected J2 were then rinsed with water to remove the kanamycin monosulfate.
# Compounds for the studies were purchased from three different companies: methyl benzoate, CAS Number 93-58-3, ≥99% purity; Tween 20, CAS Number: 9005-64-5; Tween 80, CAS Number: 9005-65-6; ethyl benzoate, CAS Number: 93-89-0, natural, ≥99% purity, FCC, FG; vinyl benzoate, CAS Number: 769-78-8, ≥99% purity; n-propyl benzoate, CAS Number: 2315-68-6, 99% purity; n-butyl benzoate, CAS Number: 136-60-7, 99% purity; benzyl benzoate, CAS Number: 120-51-4, natural, ≥99% purity, FCC, FG; methyl 2-methylbenzoate, CAS Number: 89-71-4, 99% purity; methyl 2-chlorobenzoate, CAS Number: 610-96-8, ≥98% purity; methyl 2-methoxybenzoate, CAS Number: 606-45-1, 99% purity and methyl 2-nitrobenzoate, CAS Number: 606-27-9, 98% purity were purchased from Sigma-Aldrich (St. Louis, Mo.). Compounds, iso-butyl benzoate, CAS Number 120-50-3, >98% purity; n-pentyl benzoate, CAS Number: 2049-96-9, ≥98% purity; and n-hexyl benzoate, CAS Number: 6789-88-4, ≥98% purity were purchased from Alfa Aesar (Tewksbury, Mass.). The compounds methyl 3-methoxybenzoate (methyl m-anisate), CAS Number: 5368-81-0; 97% and methyl 3-methylbenzoate (methyl m-toluate), CAS Number: 99-36-5, 97% purity were purchased from TCI America (Portland, Oreg.). All chemicals were used without further purification. Deionized water (DI) containing 1% emulsifier (v/v), Tween 20 and Tween 80, at 1:1 ratio was used to make different VOCs (volatile organic compounds) water solutions and also used as blank control.
# For tests with individual compounds, the concentration of each compound was 0.1% before placement into wells; the final concentration in the wells was 0.095% after addition to eggs or J2 suspended in water. These are reported as 0.1% herein. An exception was Trial 2, M. incognita J2 activity and viability (Table 2): the final concentration was 0.1% after placement in wells. Low concentrations were selected for assays of combined compounds to determine if the combinations would increase nematotoxicity.
# Laboratory assays were conducted in 96-well polystyrene plates following general procedures described in Wen et al. (2019). Each well received approximately 35 J2 (for previously hatched J2 assays) or 35 eggs that each contained either a first-stage juvenile (J1) or a J2. The plates were covered with plastic adhesive sealing film (Excel Scientific, Inc., Victorville Calif.) and then with the plate lids. Parafilm (Bemis, Neenah, Wis.) was used to seal the plates. The nematodes were then incubated at 26° C. […] Following the counts on Day 2, the treatments were removed and the J2 rinsed twice with SDW and incubated in the second rinse. […] Two trials were conducted for each assay.
# M. incognita juveniles = settings: MB isolated from Buddleja crispa; laboratory assays; cited from earlier work
# M. incognita eggs = assay: Microwell assay: eggs immersed in compounds, hatch and activity of hatched J2; type: in vivo, Meloidogyne incognita; settings: 0.1%; for % Active Day 2 / % Active Day 5 / % Active Day 7: J2 hatched from immersed eggs; for Hatch Day 2 / Hatch Day 5 / Hatch Day 7: hatched J2 per well, about 35 eggs per well
# Experimental: All chemicals were used without further purification.
# These are reported as 0.1% herein.
# The nematodes were then incubated at 26° C. […] Two trials were conducted for each assay.
# (§1) The assumptions of the model were checked.
# M. incognita = assay: Greenhouse trial: root galls on cucumber in treated soil; type: in vivo, Meloidogyne incognita; settings: for reduction of galls per gram of root compared with the Tween control: 0.1%, Trials 1 & 2
# Description: Two weeks after transplant, the plants were harvested.
# as §1
# The number of carbons is indicated in parentheses.
# [2] = 0.1%, previously hatched J2 in aqueous solution
# [3] = Meloidogyne incognita, 72 h, read-out: % Viable Day 3 rinsed
SMILES,"% Active Day 1 [1, 2]","% Active Day 2 [1, 2]","viability at 0.1 % [1, 3]","mortality at 0.1 % ([1]; Meloidogyne incognita, 72 h)",% Active Day 2 (M. incognita eggs),% Active Day 5 (M. incognita eggs),% Active Day 7 (M. incognita eggs),Hatch Day 2 (M. incognita eggs),Hatch Day 5 (M. incognita eggs),Hatch Day 7 (M. incognita eggs),"Galls per gram root Trials 1 & 2 (M. incognita; 0.05%, 5,000 eggs per pot)","Galls per gram root Trials 1 & 2 (M. incognita; 0.1%, 5,000 eggs per pot)",reduction of galls per gram of root compared with the Tween control (M. incognita),other results
"COC(=O)c1ccccc1 [MB, Methyl benzoate]",0 ^f %,0 ^d %,0%,100%,0 ^c %,0 ^e %,0 ^c %,2.2 ^cd,3.8 ^cde,4.7 ^de,16.6 ^bcde,7.4 ^defg,–,"% Active Day 2 ([1]; 0.0095% final concentration): 22.4 ^d %; viability at 0.0095 % [1, 3]: 75.6%; nematocidal activity (M. incognita juveniles): demonstrated nematocidal activity"
"CCOC(=O)c1ccccc1 [EB, Ethyl benzoate]",0 ^f %,0 ^d %,0%,100%,0 ^c %,0 ^e %,0 ^c %,2.4 ^cd,3.9 ^cde,4.3 ^de,22.6 ^bcd,34.2 ^abc,53%,"% Active Day 2 ([1]; 0.025% final concentration): 42.9 ^bc %; viability at 0.025 % [1, 3]: 80.2%"
"COC(=O)c1cccc(C)c1 [M3MB, Methyl 3-methylbenzoate]",0 ^f %,0 ^d %,0%,100%,0 ^c %,0 ^e %,0 ^c %,1.9 ^cd,2.7 ^cde,2.9 ^de,11.2 ^bcdef,6.8 ^defg,–,"% Active Day 2 ([1]; 0.015% final concentration): 66.8 ^ab %; viability at 0.015 % [1, 3]: 63.7%"
"C=COC(=O)c1ccccc1 [VB, Vinyl benzoate]",0 ^f %,0 ^d %,1%,100%,0 ^c %,0 ^e %,0 ^c %,2.7 ^cd,2.9 ^cde,2.8 ^de,1.8 ^gh,0.1 ^h,~100%,"% Active Day 2 ([1]; 0.008% final concentration, Trial 2 only): 22.4 ^cd %; viability at 0.0008 % [1, 3]: 89.6%; viability at 0.008 % [1, 3]: 43.1%; % Viable Day 3 rinsed ([1]; in vivo): did not result in a significant reduction"
